The source of these data is patent publication US8455475B2 (Gruenenthal GmbH, priority 2009, dated 2013).

The target of experiment [1] is T1, human B1R (bradykinin receptor 1) (Homo sapiens, UniProt P46663).
T1 construct: expressed in transfected cells; host or cells: CHO K1 cells
T1 sequence (P46663 1-353): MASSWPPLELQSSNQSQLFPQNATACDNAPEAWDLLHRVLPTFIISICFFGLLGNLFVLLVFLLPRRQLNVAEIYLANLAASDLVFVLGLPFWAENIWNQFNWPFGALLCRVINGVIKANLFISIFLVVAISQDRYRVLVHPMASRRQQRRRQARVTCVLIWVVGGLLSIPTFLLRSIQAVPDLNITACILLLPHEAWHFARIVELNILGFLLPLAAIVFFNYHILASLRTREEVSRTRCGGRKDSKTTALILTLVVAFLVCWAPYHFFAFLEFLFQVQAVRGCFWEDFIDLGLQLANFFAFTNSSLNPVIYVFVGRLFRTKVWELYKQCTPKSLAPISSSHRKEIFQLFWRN
Nature of the experiment: FLIPR Ca2+ assay (Fluo-4) on CHO K1 cells stably transfected with the human B1R gene (hB1R cells): % inhibition at 10 μM / IC50, agonist Lys-Des-Arg9-bradykinin. The experiment is classed as cell-based. The note with it: for inhibition at 10 µM: CHO-K1, human B1R. The gist of the method: (§1)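 Using a two-addition FLIPR protocol, compound (10 μM for % values; concentration series for IC50) was preincubated 10–20 min with Fluo-4-loaded B1R-expressing CHO K1 cells before EC80 agonist challenge. Suppression of Ca2+ inflow, read as peak fluorescence, is expressed relative to maximum achievable inhibition; duplicate/triplicate, ≥2 independent experiments.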

For experiment [2], the target named is T2, rat B1R (bradykinin receptor 1) (Rattus norvegicus, UniProt P97583).
T2 construct: expressed in transfected cells; host or cells: CHO K1 cells
T2 sequence (P97583 1-337): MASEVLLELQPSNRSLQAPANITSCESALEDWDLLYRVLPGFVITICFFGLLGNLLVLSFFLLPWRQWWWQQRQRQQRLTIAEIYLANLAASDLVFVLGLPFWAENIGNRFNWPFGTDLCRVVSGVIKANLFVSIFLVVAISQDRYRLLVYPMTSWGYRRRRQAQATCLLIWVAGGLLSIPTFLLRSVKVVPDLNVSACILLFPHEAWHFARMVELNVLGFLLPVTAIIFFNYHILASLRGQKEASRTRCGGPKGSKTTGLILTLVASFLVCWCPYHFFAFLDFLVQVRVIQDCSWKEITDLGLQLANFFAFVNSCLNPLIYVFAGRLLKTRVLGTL
Nature of the experiment: FLIPR Ca2+ assay (Fluo-4) on CHO K1 cells stably transfected with the B1R gene of the rat (rB1R cells): % inhibition at 10 μM / IC50, agonist Des-Arg9-bradykinin. Type of experiment: cell-based. The note with it: for inhibition at 10 µM: CHO-K1, rat B1R. The method, boiled down: as §1

As for `O=C(NC1CCCCc2ccc(C(=O)N3CCC4(CC3)CCN(c3ccncc3)CC4)cc21)c1ccccc1Cl` (centres unmarked) [Ind_CC-120, 2-chloro-N-[3-(9-pyridin-4-yl-3,9-diazaspiro[5.5]undecane-3-carbonyl)-6,7,8,9-tetrahydro-5H-benzocyclohepten-5-yl]-benzamide], the inhibition (in general, the change of the read-out against control, counted positive when it falls) at 10 µM in experiment [1] is 56%; in experiment [2] it was 99%.

`O=C(N[C@@H]1CCc2ccc(C(=O)N3CCC4(CCC(C(=O)N[C@@H]5CN6CCC5CC6)CC4)CC3)cc21)c1ccccc1Cl` [Example H-62, N-[(5S)-1-Azabicyclo[2.2.2]octan-5-yl]-3-[(3R)-3-[(2-chloro-benzoyl)amino]-2,3-dihydro-1H-indene-5-carbonyl]-3-azaspiro[5.5]undecane-9-carboxylic acid amide]: the results for the inhibition at 10 µM in experiment [1] and in experiment [2] were 30% and 102%, respectively.

For `O=C(NC1CCc2ccc(C(=O)N3CCC4(CCN(c5ccncc5)CC4)C3)cc21)c1c(Cl)cccc1Cl` (centres unmarked) [IND_CC-289, 2,6-Dichloro-N-[6-(8-pyridin-4-yl-2,8-diazaspiro[4.5]decane-2-carbonyl)-2,3-dihydro-1H-inden-1-yl]-benzamide], the inhibition at 10 µM in experiment [1] came out at 100%; in experiment [2], 104%.

On to `COc1cc(C)c(C(=O)NC2CCc3ccc(C(=O)N4CCC5(CC4)CCN(c4cccnc4)CC5)cc32)c(C)c1` (centres unmarked) [Ind_CC-090, 4-methoxy-2,6-dimethyl-N-[6-(9-pyridin-3-yl-3,9-diazaspiro[5.5]undecane-3-carbonyl)-2,3-dihydro-1H-inden-1-yl]-benzamide], for which the inhibition at 10 µM in experiment [1] is 42%; in experiment [2] it was 100%.

In the case of `CC1(C)CC(NC(=O)Cc2ccccc2Cl)c2cc(C(=O)N3CCC4(CC3)CCN(c3ccncc3)CC4)ccc21` (centres unmarked) [Ind_CC-053, 2-(2-chlorophenyl)-N-[3,3-dimethyl-6-(9-pyridin-4-yl-3,9-diazaspiro[5.5]undecane-3-carbonyl)-1,2-dihydro-inden-1-yl]-acetamide], the inhibition at 10 µM was 99% in experiment [1] and 103% in experiment [2].

Turning to `CC1(C)CC(NC(=O)c2ccc(Cl)cc2Cl)c2cc(C(=O)N3CCC4(CC3)CCN(c3ccncc3)CC4)ccc21` (centres unmarked) [Ind_CC-059, 2,4-dichloro-N-[3,3-dimethyl-6-(9-pyridin-4-yl-3,9-diazaspiro[5.5]undecane-3-carbonyl)-1,2-dihydro-inden-1-yl]-benzamide], the inhibition at 10 µM in experiment [1] amounted to 100%; in experiment [2], 102%.

Turning to `O=C(c1ccc2c(c1)[C@H](NS(=O)(=O)c1cccc(Cl)c1Cl)CC2)N1CCC2(CCN(c3ccncc3)CC2)C1` [Example H-113, 2,3-Dichloro-N-[(1R)-6-(8-pyridin-4-yl-3,8-diazaspiro[4.5]decane-3-carbonyl)-2,3-dihydro-1H-inden-1-yl]-benzenesulfonic acid amide], the inhibition at 10 µM in experiment [1] came to 99%; in experiment [2], 92%.

In the case of `O=C(N[C@@H]1CCc2ccc(C(=O)N3CCC4(CCN(c5ccncc5)CC4)C3)cc21)c1ccccc1F` [Example H-101, 2-Fluoro-N-[(1R)-6-(8-pyridin-4-yl-3,8-diazaspiro[4.5]decane-3-carbonyl)-2,3-dihydro-1H-inden-1-yl]-benzamide], the inhibition at 10 µM in experiment [1] came to 97%; in experiment [2], 107%.

Take `CC1(C)Cc2ccc(C(=O)N3CCC4(CC3)CCN(c3ccncc3)CC4)cc2C1NC(=O)c1c(Cl)cccc1Cl` (centres unmarked) [IND_CC-287, 2,6-Dichloro-N-[2,2-dimethyl-6-(9-pyridin-4-yl-3,9-diazaspiro[5.5]undecane-3-carbonyl)-1,3-dihydro-inden-1-yl]-benzamide]: the figures for the inhibition at 10 µM in experiment [1] and in experiment [2] were 99% and 105%, respectively.

For `O=C(N[C@@H]1CCCc2cc(F)c(C(=O)N3CCC4(CCN(c5ccncc5)CC4)C3)cc21)c1ccccc1Cl` [Example H-82, 2-Chloro-N-[(1R)-6-fluoro-7-(8-pyridin-4-yl-3,8-diazaspiro[4.5]decane-3-carbonyl)-1,2,3,4-tetrahydro-naphthalen-1-yl]-benzamide], the values for the inhibition at 10 µM in experiment [1] and in experiment [2] were 100% and 104%, respectively.

Take `CC1(C)Cc2ccc(C(=O)N3CCC4(CC3)CCN(c3ccncc3)CC4)cc2C1NC(=O)c1ccccc1C(F)(F)F` (centres unmarked) [Ind_CC-064, N-[2,2-dimethyl-6-(9-pyridin-4-yl-3,9-diazaspiro[5.5]undecane-3-carbonyl)-1,3-dihydro-inden-1-yl]-2-(trifluoromethyl)-benzamide]: the inhibition at 10 µM in experiment [1] amounted to 95%; in experiment [2] it was 101%.

Regarding `O=C(N[C@@H]1CCc2ccc(C(=O)N3CCC4(CCN(c5ccncc5)CC4)C3)cc21)c1c(F)cccc1C(F)(F)F` [Example H-110, 2-Fluoro-N-[(1R)-6-(8-pyridin-4-yl-3,8-diazaspiro[4.5]decane-3-carbonyl)-2,3-dihydro-1H-inden-1-yl]-6-(trifluoromethyl)-benzamide], the inhibition at 10 µM in experiment [1] was 101%; in experiment [2], 108%.

As to `O=C(c1cccc2c1CC[C@H]2N1Cc2cccc(Cl)c2C1=O)N1CCC2(CC1)CCN(c1ccncc1)CC2` [Example H-170, 7-Chloro-2-[(1R)-4-(9-pyridin-4-yl-3,9-diazaspiro[5.5]undecane-3-carbonyl)-2,3-dihydro-1H-inden-1-yl]-2,3-dihydro-isoindol-1-one], the figures for the inhibition at 10 µM in experiment [1] and in experiment [2] were 56% and 47%, respectively.

As for `O=C(NC1CCc2ccc(C(=O)N3CCC4(CCN(c5ccc6cnccc6c5)CC4)C3)cc21)c1ccccc1Cl` (centres unmarked) [Example H-50, 2-chloro-N-[6-(8-isoquinolin-6-yl-3,8-diazaspiro[4.5]decane-3-carbonyl)-2,3-dihydro-1H-inden-1-yl]-benzamide], the inhibition at 10 µM in experiment [1] and in experiment [2] was 98% in each case.

Regarding `CN(C(=O)c1cc(F)c(F)cc1Cl)C1CCc2ccc(C(=O)N3CCC4(CC3)CCN(c3ccncc3)CC4)cc21` (centres unmarked) [IND_CC-224, 2-Chloro-4,5-difluoro-N-methyl-N-[6-(9-pyridin-4-yl-3,9-diazaspiro[5.5]undecane-3-carbonyl)-2,3-dihydro-1H-inden-1-yl]-benzamide], the inhibition at 10 µM was found to be 100% in experiment [1] and 103% in experiment [2].

As for `O=C(NC1CCc2ccc(C(=O)N3CCC4(CCN(c5ccncc5)CC4)C3)cc21)c1ccccc1Cl` (centres unmarked) [Ind_CC-100, 2-chloro-N-[6-(8-pyridin-4-yl-2,8-diazaspiro[4.5]decane-2-carbonyl)-2,3-dihydro-1H-inden-1-yl]-benzamide], the inhibition at 10 µM in experiment [1] was determined as 100%; in experiment [2] it was 104%.

Consider `O=C(NC1CCc2ccc(C(=O)N3CCC4(CCN(c5ccncc5)CC4)C3)cc21)c1cccc(C(F)(F)F)c1Cl` (centres unmarked) [IND_CC-255, 2-Chloro-N-[6-(8-pyridin-4-yl-2,8-diazaspiro[4.5]decane-2-carbonyl)-2,3-dihydro-1H-inden-1-yl]-3-(trifluoromethyl)-benzamide], for which the inhibition at 10 µM in experiment [1] and in experiment [2] was 100% in each case.

For `COc1ccc(C(=O)N(C)C2CCc3ccc(C(=O)N4CCC5(CC4)CCN(c4ccncc4)CC5)cc32)c(F)c1` (centres unmarked) [IND_CC-296, 2-Fluoro-4-methoxy-N-methyl-N-[6-(9-pyridin-4-yl-3,9-diazaspiro[5.5]undecane-3-carbonyl)-2,3-dihydro-1H-inden-1-yl]-benzamide], the inhibition at 10 µM was 59% in experiment [1] and 103% in experiment [2].

`Cc1ccc(F)c(C(=O)NC2CCc3ccc(C(=O)N4CCC5(CC4)CCN(c4ccncc4)CC5)cc32)c1Cl` (centres unmarked) [IND_CC-214, 2-Chloro-6-fluoro-3-methyl-N-[6-(9-pyridin-4-yl-3,9-diazaspiro[5.5]undecane-3-carbonyl)-2,3-dihydro-1H-inden-1-yl]-benzamide]: the figures for the inhibition at 10 µM in experiment [1] and in experiment [2] were 83% and 102%, respectively.

Turning to `O=C(NC1CCc2ccc(C(=O)N3CCC4(CC3)CCN(c3ccncc3)C4)cc21)C(c1ccccc1)c1ccccc1Cl` (centres unmarked) [Ind_CC-051, 2-(2-chlorophenyl)-2-phenyl-N-[6-(2-pyridin-4-yl-2,8-diazaspiro[4.5]decane-8-carbonyl)-2,3-dihydro-1H-inden-1-yl]-acetamide], the inhibition at 10 µM is 71% in experiment [1] and 99% in experiment [2].

As to `O=C(NC1CCc2ccc(C(=O)N3CCC4(CC3)CCN(c3ccncc3)CC4)cc21)c1ccccc1Cl` (centres unmarked) [Ind_CC-095, 2-chloro-N-[6-(9-pyridin-4-yl-3,9-diazaspiro[5.5]undecane-3-carbonyl)-2,3-dihydro-1H-inden-1-yl]-benzamide], the “% Inhibition (human B1R) at 10 μM” value in experiment [1] (human B1R, 10 µM) was determined as 99%. Also, in experiment [2] (rat B1R, 10 µM), the “% Inhibition (rat B1R) at 10 μM” value was determined as 99%.

`Cc1cccc(C)c1C(=O)NC1CCc2ccc(C(=O)N3CCC4(CCN(c5ccncc5)CC4)C3)cc21` (centres unmarked) [IND_CC-310, 2,6-Dimethyl-N-[6-(8-pyridin-4-yl-2,8-diazaspiro[4.5]decane-2-carbonyl)-2,3-dihydro-1H-inden-1-yl]-benzamide]: the inhibition at 10 µM came to 100% in experiment [1] and 104% in experiment [2].
